{
  "source": "patent US20040106651A1",
  "about": "“3,4-diaminopyriding tartrate and phosphate, pharmaceutical compositions and uses thereof” (priority 2001, published 2004)",
  "assay": "Stability study in hard gelatin capsules under ICH storage conditions",
  "assay_type": "physicochemical",
  "details": "for Stability under the storage conditions in accordance with the international recommendations: general statement; for Stability formulated in hard gelatin capsules: conclusion from tables I and II",
  "description": "3,4-DAP tartrate, as prepared above in example 1, was introduced into hard gelatin capsules made of gelatin of size No. 3 in a proportion of 10 mg (expressed as weight of 3,4-DAP in the free base form) per hard gelatin capsule (Hard gelatin capsules A).\nIn the same way and by way of comparison, hard gelatin capsules made of gelatin of size No. 3 including 10 mg of 3,4-DAP per hard gelatin capsule were prepared (Hard gelatin capsules B).\nA stability study on 3,4-DAP tartrate and on 3,4-DAP, introduced respectively into hard gelatin capsules A and B, was subsequently carried out.\nThis study was carried out under the conditions recommended by the international recommendations for the study of the stability of active principles (International Conference on Harmonization, Draft Guideline on Stability Testing of New Drug and Product, November 1999, CPMP/ICH/2736/99).",
  "data": [
    {"smiles": "Nc1ccncc1N.O=P(O)(O)O", "note": "[3,4-DAP phosphate, 3,4-diaminopyridine Phosphate]", "values": [
      {"measurement": "Stability under the storage conditions in accordance with the international recommendations", "value": "very high stability"}
    ]},
    {"smiles": "Nc1ccncc1N.O=C(O)C(O)C(O)C(=O)O", "note": "(centres unmarked) [3,4-DAP tartrate, 3,4-diaminopyridine Tartrate]", "values": [
      {"measurement": "Stability formulated in hard gelatin capsules", "value": "great stability"},
      {"measurement": "Stability under the storage conditions in accordance with the international recommendations", "value": "very high stability"}
    ]},
    {"smiles": "Nc1ccncc1N", "note": "[3,4-DAP, 3,4-diaminopyridine, reference compound]", "values": [
      {"measurement": "Stability formulated in hard gelatin capsules", "value": "unstable"},
      {"measurement": "Stability under the storage conditions in accordance with the international recommendations", "value": "unstable"}
    ]}
  ]
}
